From patent US8455497B2, “Inhibitors of aspartyl protease” (Vertex Pharmaceuticals Incorporated, priority 1999, dated 2013)
Like-named read-outs stand apart in the source and are kept apart here.

Test system: HIV-1 (strain IIIB)
Experiment: Antiviral activity assay in MT4 cells (propidium iodide based)
Type: cell-based
Experimental: Antiviral Activity Assay in MT4 Cells
Aliquots of the test compounds were serially diluted in medium (RPMI 1640, 10% fetal calf serum (FCS), and gentamycin) in 96-well plates (Costar 3598) using a Cetus Pro/Pette. Exponentially growing MT4 cells were harvested and centrifuged at 1000 rpm for 10 min in a Jouan centrifuge (model CR 4 12). Cell pellets were resuspended in fresh medium (RPMI 1640, 20% FCS, 20% IL-2, and gentamycin) to a density of 5×10^5 cells/ml. Cell aliquots were infected by the addition of HIV-1 (strain IIIB) diluted to give a viral multiplicity of infection of 100×TCID50. A similar cell aliquot was diluted with medium to provide a mock-infected control. Cell infection was allowed to proceed for 1 hr at 37° in a tissue culture incubator with humidified 5% CO2 atmosphere. After the 1 hr incubation the virus/cell suspensions were diluted 6-fold with fresh medium, and 125 μl of the cell suspension was added to each well of the plate containing pre-diluted compound. Plates were then placed in a tissue culture incubator with humidified 5% CO2 for 5 days. At the end of the incubation period, 27 μl of 5% Nonidet-40 was added to each well of the incubation plate. After thorough mixing with a Costar multitip pipetter, 60 μl of the mixture was transferred to filter-bottomed 96-well plates. The plates were analyzed in an automated assay instrument (Screen Machine, Idexx Laboratories). The assay makes use of a propidium iodide dye to estimate the DNA content of each well.
The anti-viral potency in MT-4 cells of the compounds set forth in Tables 1 and 2 was determined using the above technique.

[1] = MT-4 cells, HIV-1 strain IIIB, 5 days, read-out: IC50 (Antiviral Activity of Compounds of the Invention)
[2] = Human immunodeficiency virus 1, MT4, 120 h, MT-4 cells, HIV-1 strain IIIB, 5 days, read-out: IC50 (Antiviral Activity of Compounds of the Invention)

| IC50 [1] | Structure (SMILES) | further results |
| --- | --- | --- |
| – | CC(C)CN(C[C@@H](O)[C@H](Cc1ccc(OCCCN)cc1)NC(=O)OC1CO[C@H]2OCC[C@@H]12)S(=O)(=O)c1ccc2c(c1)OCO2 (stereo in doubt) [Compound 222, (3R,3aS,6aR)-hexahydrofuro[2,3-b]furan-3-yl (1S,2R)-1-[4-(3-aminopropoxy)benzyl]-3-[(1,3-benzodioxol-5-ylsulfonyl)(isobutyl)amino]-2-hydroxypropylcarbamate] | IC50 (Human immunodeficiency virus 1, IIIB, wild type HIV-1 virus, MT4 cells, read-out: Wildtype virus - IC50): 10 to 100 nM |
| > 100 nM | CC(C)CN(CC(O)C(Cc1ccc(OCCN2CCOCC2)cc1)NC(=O)OC(C)(C)C)S(=O)(=O)c1ccc(N)cc1 (stereo not drawn) [Compound 10] | – |
| > 100 nM | CC(C)CN(CC(O)C(Cc1ccc(OCCCN2CCOCC2)cc1)NC(=O)OC(C)(C)C)S(=O)(=O)c1ccc(N)cc1 (stereo not drawn) [Compound 11] | – |
| > 100 nM | COCCN(CCOC)CCOc1ccc(CC(NC(=O)OC(C)(C)C)C(O)CN(CC(C)C)S(=O)(=O)c2cccc(N)c2)cc1 (stereo not drawn) [Compound 13] | – |
| > 100 nM | CC(C)CN(CC(O)C(Cc1ccc(OCCN2CCOCC2)cc1)NC(=O)OC(C)(C)C)S(=O)(=O)c1cccc(N)c1 (stereo not drawn) [Compound 15] | – |
| > 100 nM | CC(C)CN(CC(O)C(Cc1ccc(OCCCN2CCOCC2)cc1)NC(=O)OC(C)(C)C)S(=O)(=O)c1cccc(N)c1 (stereo not drawn) [Compound 16] | – |
| – | CC(C)CN(C[C@@H](O)[C@H](Cc1ccc(OCCN2CCOCC2)cc1)NC(=O)OC(C)(C)C)S(=O)(=O)c1ccc2c(c1)OCO2 [Compound 17, Boc Methylenedioxybenzenesulfonamide Ethylmorpholine Tethered Product] | IC50 [2]: > 100 nM |
| – | COCCN(CCOC)CCOc1ccc(C[C@H](NC(=O)OC(C)(C)C)[C@H](O)CN(CC(C)C)S(=O)(=O)c2ccc3c(c2)OCO3)cc1 [Compound 18, Boc Methylenedioxybenzenesulfonamide Bis-Methoxyethylamine Tethered Product] | IC50 [2]: 10 to 100 nM |
| – | CC(C)CN(C[C@@H](O)[C@H](Cc1ccc(OCCCN2CCOCC2)cc1)NC(=O)OC(C)(C)C)S(=O)(=O)c1ccc2c(c1)OCO2 [Compound 20, Boc Methylenedioxybenzenesulfonamide Propylmorpholine Tethered Product] | IC50 [2]: 10 to 100 nM |
| – | CC(C)CN(C[C@@H](O)[C@H](Cc1ccc(OCC(=O)N2CCOCC2)cc1)NC(=O)OC(C)(C)C)S(=O)(=O)c1ccc2c(c1)OCO2 [Compound 21, Boc methylenedioxybenzenesulfonamide Acetylmorpholine Tethered Product] | IC50 [2]: 10 to 100 nM |
| 10 to 100 nM | COCCN(CCOC)CCOc1ccc(CC(NC(=O)OC2CCOC2)C(O)CN(CC(C)C)S(=O)(=O)c2cccc(N)c2)cc1 (stereo not drawn) [Compound 22, bis-THF m-aminophenylsulfonamide benzyl ether] | – |
| 10 to 100 nM | CC(C)CN(CC(O)C(Cc1ccc(OCCN2CCOCC2)cc1)NC(=O)OC1CCOC1)S(=O)(=O)c1cccc(N)c1 (stereo not drawn) [Compound 23] | – |
| 10 to 100 nM | COCCN(CCOC)CCOc1ccc(CC(NC(=O)OC2CCOC2)C(O)CN(CC(C)C)S(=O)(=O)c2ccc3c(c2)OCO3)cc1 (stereo not drawn) [Compound 24] | – |
| 10 to 100 nM | COCCN(CCOC)CCOc1ccc(CC(NC(=O)OC2COCOC2)C(O)CN(CC(C)C)S(=O)(=O)c2cccc(N)c2)cc1 (stereo not drawn) [Compound 25] | – |
| < 1 nM | CC(C)CN(CC(O)C(Cc1ccc(OCc2ccccc2)cc1)NC(=O)OC1COC2OCCC12)S(=O)(=O)c1ccc(N)cc1 (stereo not drawn) [Compound 26] | – |
| > 100 nM | COCCN(CCOC)CCOc1ccc(CC(NC(=O)OC2COC3OCCC23)C(O)CN(CC(C)C)S(=O)(=O)c2ccc(N)cc2)cc1 (stereo not drawn) [Compound 27] | – |
| 10 to 100 nM | CC(C)CN(CC(O)C(Cc1ccc(OCCN2CCOCC2)cc1)NC(=O)OC1COC2OCCC12)S(=O)(=O)c1ccc(N)cc1 (stereo not drawn) [Compound 29] | – |
| 10 to 100 nM | CC(C)CN(CC(O)C(Cc1ccc(OCCCN2CCOCC2)cc1)NC(=O)OC1COC2OCCC12)S(=O)(=O)c1ccc(N)cc1 (stereo not drawn) [Compound 30] | – |
| 1 to 10 nM | CC(C)CN(CC(O)C(Cc1ccc(OCc2ccccn2)cc1)NC(=O)OC1COC2OCCC12)S(=O)(=O)c1ccc(N)cc1 (stereo not drawn) [Compound 31] | – |
| 10 to 100 nM | CC(C)CN(CC(O)C(Cc1ccc(O)cc1)NC(=O)OC1COC2OCCC12)S(=O)(=O)c1ccc(N)cc1 (stereo not drawn) [Compound 32] | – |
| 10 to 100 nM | Cc1cc(COc2ccc(CC(NC(=O)OC3COC4OCCC34)C(O)CN(CC(C)C)S(=O)(=O)c3ccc(N)cc3)cc2)no1 (stereo not drawn) [Compound 33] | – |

| IC50 [1] | Structure (SMILES) | further results |
| --- | --- | --- |
| > 100 nM | COCCN(CCOC)CCOc1ccc(CC(NC(=O)OC2COC3OCCC23)C(O)CN(CC(C)C)S(=O)(=O)c2cccc(N)c2)cc1 (stereo not drawn) [Compound 34] | – |
| 10 to 100 nM | Cc1cc(COc2ccc(CC(NC(=O)OC3COC4OCCC34)C(O)CN(CC(C)C)S(=O)(=O)c3cccc(N)c3)cc2)no1 (stereo not drawn) [Compound 35] | – |
| 10 to 100 nM | CC(C)CN(CC(O)C(Cc1ccc(OCc2ccccn2)cc1)NC(=O)OC1COC2OCCC12)S(=O)(=O)c1cccc(N)c1 (stereo not drawn) [Compound 36] | – |
| 10 to 100 nM | CC(C)CN(CC(O)C(Cc1ccc(OCCN2CCOCC2)cc1)NC(=O)OC1COC2OCCC12)S(=O)(=O)c1cccc(N)c1 (stereo not drawn) [Compound 37] | – |
| < 1 nM | Cc1cc(S(=O)(=O)N(CC(C)C)CC(O)C(Cc2ccc(OCc3ccccc3)cc2)NC(=O)OC2COC3OCCC23)ccc1O (stereo not drawn) [Compound 38] | – |
| – | CC(C)CN(C[C@@H](O)[C@H](Cc1ccc(OCc2ccccc2)cc1)NC(=O)O[C@H]1CO[C@H]2OCC[C@H]21)S(=O)(=O)c1ccc2nc(N)sc2c1 [Compound 44, Bis-THF Benzothiazolesulfonamide Benzyl Ether] | IC50 [2]: < 1 nM |
| < 1 nM | CC(C)CN(CC(O)C(Cc1ccc(OCc2ccccc2)cc1)NC(=O)OC1COC2OCCC12)S(=O)(=O)c1ccc2c(c1)OCO2 (stereo not drawn) [Compound 46, Bis-THF Methylenedioxybenzenesulfonamide Benzyl Ether] | – |
| – | CC(C)CN(C[C@@H](O)[C@H](Cc1ccc(OCCN2CCOCC2)cc1)NC(=O)O[C@H]1CO[C@H]2OCC[C@H]21)S(=O)(=O)c1ccc2c(c1)OCO2 [Compound 48, Bis-THF Methylenedioxybenzenesulfonamide Ethylmorpholine Tethered Product] | IC50 [2]: 1 to 10 nM |
| – | CC(C)CN(C[C@@H](O)[C@H](Cc1ccc(OCCCN2CCOCC2)cc1)NC(=O)O[C@H]1CO[C@H]2OCC[C@H]21)S(=O)(=O)c1ccc2c(c1)OCO2 [Compound 49, Bis-THF Methylenedioxybenzenesulfonamide Propylmorpholine Tethered Product] | IC50 [2]: 1 to 10 nM |
| – | CC(C)CN(C[C@@H](O)[C@H](Cc1ccc(OCC(=O)N2CCOCC2)cc1)NC(=O)O[C@H]1CO[C@H]2OCC[C@H]21)S(=O)(=O)c1ccc2c(c1)OCO2 [Compound 50, Bis-THF Methylenedioxybenzenesulfonamide Acetylmorpholine Tethered Product] | IC50 [2]: 10 to 100 nM |
| – | COCCN(CCOC)CCOc1ccc(C[C@H](NC(=O)O[C@H]2CO[C@H]3OCC[C@H]32)[C@H](O)CN(CC(C)C)S(=O)(=O)c2ccc3c(c2)OCO3)cc1 [Compound 51, Bis-THF Methylenedioxybenzenesulfonamide Bis-Methoxyethylamine Tethered Product] | IC50 [2]: 1 to 10 nM |
| – | Cc1cc(C)n(COc2ccc(C[C@H](NC(=O)O[C@H]3CO[C@H]4OCC[C@H]43)[C@H](O)CN(CC(C)C)S(=O)(=O)c3ccc4c(c3)OCO4)cc2)n1 [Compound 56, Bis-THF Methylenedioxybenzenesulfonamide 1-methyl-3,5-dimethylpyrazole Tethered Product] | IC50 [2]: 10 to 100 nM |
| – | CC(C)CN(C[C@@H](O)[C@H](Cc1ccc(OCCn2cccn2)cc1)NC(=O)O[C@H]1CO[C@H]2OCC[C@H]21)S(=O)(=O)c1ccc2c(c1)OCO2 [Compound 57, Bis-THF Methylenedioxybenzenesulfonamide Ethylpyrazole Tethered Product] | IC50 [2]: 1 to 10 nM |
| > 100 nM | COCCN(CCOC)CCOc1ccc(CC(NC(=O)OC(C)(C)C)C(O)CN(CC(C)(C)CCC#N)S(=O)(=O)c2ccc(N)cc2)cc1 (stereo not drawn) [Compound 67] | – |
| > 100 nM | COCCN(CCOC)CCOc1ccc(CC(NC(=O)OC(C)(C)C)C(O)CN(CC(C)(C)CCC#N)S(=O)(=O)c2ccc3c(c2)OCO3)cc1 (stereo not drawn) [Compound 68] | – |
| > 100 nM | COCCN(CCOC)CCOc1ccc(CC(NC(=O)OC2CCOC2)C(O)CN(CC(C)(C)CCC#N)S(=O)(=O)c2ccc3c(c2)OCO3)cc1 (stereo not drawn) [Compound 69] | – |
| > 100 nM | COCCN(CCOC)CCOc1ccc(CC(NC(=O)OC2CCOC2)C(O)CN(CC(C)(C)CCC#N)S(=O)(=O)c2ccc(N)cc2)cc1 (stereo not drawn) [Compound 70] | – |
| 1 to 10 nM | CC(C)(CCC#N)CN(CC(O)C(Cc1ccc(OCc2ccccc2)cc1)NC(=O)OC1COC2OCCC12)S(=O)(=O)c1ccc(N)cc1 (stereo not drawn) [Compound 71] | – |
| 1 to 10 nM | CC(C)(CCC#N)CN(CC(O)C(Cc1ccc(OCc2ccccc2)cc1)NC(=O)OC1COC2OCCC12)S(=O)(=O)c1ccc2c(c1)OCO2 (stereo not drawn) [Compound 72] | – |
| 10 to 100 nM | COCCN(CCOC)CCOc1ccc(CC(NC(=O)OC2COC3OCCC23)C(O)CN(CC(C)(C)CCC#N)S(=O)(=O)c2ccc3c(c2)OCO3)cc1 (stereo not drawn) [Compound 73] | – |
| > 100 nM | COCCN(CCOC)CCOc1ccc(CC(NC(=O)OC2COC3OCCC23)C(O)CN(CC(C)(C)CCC#N)S(=O)(=O)c2ccc(N)cc2)cc1 (stereo not drawn) [Compound 74] | – |
